What was measured:
Type in all cases: in vivo
[1] = system: Beet Armyworm (Spodoptera exigua); test: Bioassay on Beet Armyworm (BAW), 128-well diet tray assay; conditions: 50 μg/cm^2 on artificial diet, second instar larvae, five to seven days, 25° C.
Protocol: Bioassays on BAW were conducted using a 128-well diet tray assay. One to five second instar BAW larvae were placed in each well (3 mL) of the diet tray that had been previously filled with 1 mL of artificial diet to which 50 μg/cm^2 of the test molecule (dissolved in 50 μL of 90:10 acetone-water mixture) had been applied (to each of eight wells) and then allowed to dry. Trays were covered with a clear self-adhesive cover and held at 25° C., 14:10 light-dark for five to seven days. Percent mortality was recorded for the larvae in each well; activity in the eight wells was then averaged. The results are indicated in the table entitled “Table ABC: Biological Results” (See Table Section).
(§1) Bioassays on BAW and CL were conducted according to the procedures outlined in Example A: Bioassays on Beet Armyworm (“BAW”) and Cabbage Looper (“CL”) using the indicated concentrations.

[2] = system: Cabbage Looper (Trichoplusia ni); test: Bioassay on Cabbage Looper (CL), 128-well diet tray assay; conditions: 50 μg/cm^2 on artificial diet, second instar larvae, five to seven days, 25° C.
Protocol: Bioassays on CL were conducted using a 128-well diet tray assay. One to five second instar CL larvae were placed in each well (3 mL) of the diet tray that had been previously filled with 1 mL of artificial diet to which 50 μg/cm^2 of the test molecule (dissolved in 50 μL of 90:10 acetone-water mixture) had been applied (to each of eight wells) and then allowed to dry. Trays were covered with a clear self-adhesive cover and held at 25° C., 14:10 light-dark for five to seven days. Percent mortality was recorded for the larvae in each well; activity in the eight wells was then averaged. The results are indicated in the table entitled “Table ABC: Biological Results” (See Table Section).
as §1

[3] = system: Green Peach Aphid (Myzus persicae); test: Bioassay on Green Peach Aphid (GPA), foliar spray on cabbage seedlings; conditions: 200 ppm spray on cabbage seedlings, graded after three days, Abbott corrected % control
Protocol: Cabbage seedlings grown in 3-inch pots, with 2-3 small (3-5 cm) true leaves, were used as test substrate. The seedlings were infested with 20-50 GPA (wingless adult and nymph stages) one day prior to chemical application. Four pots with individual seedlings were used for each treatment. Test molecules (2 mg) were dissolved in 2 mL of acetone/methanol (1:1) solvent, forming stock solutions of 1000 ppm test molecule. The stock solutions were diluted 5× with 0.025% Tween 20 in water to obtain the solution at 200 ppm test molecule. A hand-held aspirator-type sprayer was used for spraying a solution to both sides of […] leaves until runoff. Reference plants (solvent check) were sprayed with the diluent only containing 20% by volume of acetone/methanol (1:1) solvent. Treated plants were held in a holding room for three days at approximately 25° C. and ambient relative humidity (RH) prior to grading. Evaluation was conducted by counting the number of live aphids per plant under a microscope. Percent Control was measured by using Abbott's correction formula (W. S. Abbott, “A Method of Computing the Effectiveness of an Insecticide” J. Econ. Entomol. 18 (1925), pp. 265-267) as follows. Corrected % Control=100*(X−Y)/X • where • X=No. of live aphids on solvent check plants and • Y=No. of live aphids on treated plants

[4] = system: Yellow Fever Mosquito (Aedes aegypti); conditions: 4000 ppm master plate solution diluted, about 1 day-old larvae, scored on mortality after 3 days
Protocol: Master plates containing 400 μg of a molecule dissolved in 100 μL of dimethyl sulfoxide (DMSO) (equivalent to a 4000 ppm solution) are used. A master plate of assembled molecules contains 15 μL per well. To this plate, 135 μL of a 90:10 water:acetone mixture is added to each well. A robot (Biomek® NXP Laboratory Automation Workstation) is programmed to dispense 15 μL aspirations from the master plate into an empty 96-well shallow plate (“daughter” plate). There are 6 reps (“daughter” plates) created per master. The created daughter plates are then immediately infested with YFM larvae.
The day before plates are to be treated, mosquito eggs are placed in Millipore water containing liver powder to begin hatching (4 g. into 400 mL). After the daughter plates are created using the robot, they are infested with 220 μL of the liver powder/larval mosquito mixture (about 1 day-old larvae). After plates are infested with mosquito larvae, a non-evaporative lid is used to cover the plate to reduce drying. Plates are held at room temperature for 3 days prior to grading. After 3 days, each well is observed and scored based on mortality. The results are indicated in the table entitled “Table ABC: Biological Results” (See Table Section).

For `CN(NC(=O)c1ccc(/C(F)=C/C(c2ccc(Cl)c(Br)c2)C(F)(F)F)cc1C(F)(F)F)C(=O)NCC(F)(F)F` (stereo not shown) [PF8], the “BAW % Control (or Mortality) rating” value [1] was “A (50-100)”, the “CL % Control (or Mortality) rating” value [2] was “A (50-100)” and the “GPA % Control (or Mortality) rating” value [3] was “B (More than 0-Less than 80)”. For the same molecule, the “YFM % Control (or Mortality) rating” value [4] was “A (80-100)”.

Reference: patent publication US9930892B2, “Molecules having pesticidal utility, and intermediates, compositions, and processes, related thereto” (Dow AgroSciences LLC, priority 2016, dated 2018)
